Where “and” joins values, the source holds several entries; their conditions need not be identical. Equal values may be shown once. Toxic doses and inconclusive results are not listed.
System: BDF1 mice, P388 leukemia ip, median survival T/C
Assay: NCI In Vivo Anticancer Drug Screen. Data for tumor model P388 Leukemia (intraperitoneal) in B6D2F1 (BDF1) mice
Conditions: endpoint: median survival time, higher = longer survival
Procedure, shortened: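 Survival ratio, drug arm over vehicle arm, in mice with a transplanted tumour.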

[1] = dose: 100.0 mg/kg/injection, schedule: Q04DX003 (ip), vehicle: saline with Tween-80
[2] = dose: 200.0 mg/kg/injection, schedule: Q04DX003 (ip), vehicle: saline with Tween-80
[3] = dose: 400.0 mg/kg/injection, schedule: Q04DX003 (ip), vehicle: saline with Tween-80
[4] = dose: 100.0 mg/kg/injection, schedule: Q01DX009 (ip), vehicle: saline with Tween-80
[5] = dose: 200.0 mg/kg/injection, schedule: Q01DX009 (ip), vehicle: saline with Tween-80
[6] = dose: 50.0 mg/kg/injection, schedule: Q01DX009 (ip), vehicle: saline with Tween-80
[7] = dose: 25.0 mg/kg/injection, schedule: Q01DX009 (ip), vehicle: saline with Tween-80

For `CC1=CC(=O)[C@@H](O)[C@]2(C)[C@H]3[C@@]4(O)OC[C@]35[C@H]([C@@H](C)[C@H]4O)[C@@H](OC(=O)c3ccccc3)C(=O)O[C@@H]5C[C@@H]12`, the T/C (dose: 0.03 mg/kg/injection, schedule: Q01DX009 (ip), vehicle: saline with Tween-80) was 121 % of control, the T/C (dose: 0.06 mg/kg/injection, schedule: Q01DX009 (ip), vehicle: saline with Tween-80) was 118 % of control and the T/C (dose: 0.12 mg/kg/injection, schedule: Q01DX009 (ip), vehicle: saline with Tween-80) was 122 % of control.

With `CCOP(=S)(OCC)Oc1cnn(C)c(=S)c1Cl` the T/C (dose: 50.0 mg/kg/injection, schedule: Q01DX005 (ip), vehicle: saline with Tween-80) was 98 % of control, the T/C (dose: 100.0 mg/kg/injection, schedule: Q01DX005 (ip), vehicle: saline with Tween-80) was 101 % of control and the T/C (dose: 200.0 mg/kg/injection, schedule: Q01DX005 (ip), vehicle: saline with Tween-80) was 108 % of control.

In the case of `C[C@]12CCC(=O)C=C1CC[C@@H]1[C@@H]2[C@@H](O)C[C@@]2(C)[C@H]1CC[C@]2(O)C(=O)CO`, the T/C (dose: 6.25 mg/kg/injection, schedule: Q01DX010 (sc), vehicle: steriod suspending solution) is reported as 100 % of control, the T/C (dose: 12.5 mg/kg/injection, schedule: Q01DX010 (sc), vehicle: steriod suspending solution) is reported as 100 % of control and the T/C (dose: 25.0 mg/kg/injection, schedule: Q01DX010 (sc), vehicle: steriod suspending solution) is reported as 110 % of control. The T/C (dose: 50.0 mg/kg/injection, schedule: Q01DX010 (sc), vehicle: steriod suspending solution) was 120 % of control, the T/C (dose: 100.0 mg/kg/injection, schedule: Q01DX010 (sc), vehicle: steriod suspending solution) was 115 % of control and 120 % of control and the T/C (dose: 200.0 mg/kg/injection, schedule: Q01DX010 (sc), vehicle: steriod suspending solution) was 110 % of control.

For `CCN(CC)c1ccc(NC(=O)Nc2ccccc2OC)cc1`, the T/C [1] was 95 % of control, the T/C [2] was 100 % of control and the T/C [3] was 100 % of control.

For `[OH-].[OH-].[Pd+2].c1ccc(CSc2ncnc3nc[nH]c23)cc1.c1ccc(CSc2ncnc3nc[nH]c23)cc1.c1ccc(CSc2ncnc3nc[nH]c23)cc1.c1ccc(CSc2ncnc3nc[nH]c23)cc1`, the T/C [4] was 90 % of control, the T/C [1] was 90 % of control and the T/C [5] was 90 % of control. The T/C [2] was 90 % of control and the T/C (dose: 400.0 mg/kg/injection, schedule: Q01DX009 (ip), vehicle: saline with Tween-80) was 90 % of control.

In the case of `S=C(Cc1ccccc1)N1CCN(c2ccc(Cl)cc2)CC1`, the T/C [6] is reported as 104 % of control, the T/C [4] is reported as 100 % of control and the T/C [5] is reported as 100 % of control.

In the case of `CCCNC1=C(C)C(=O)C2=C(C1=O)[C@H](COC(N)=O)[C@]1(OC)[C@@H]3N[C@@H]3CN21`, the T/C (dose: 2.0 mg/kg/injection, schedule: Q01DX009 (ip), vehicle: saline sonified) is reported as 205 % of control, the T/C (dose: 2.0 mg/kg/injection, schedule: Q01DX009 (ip), vehicle: saline) is reported as 180 % of control and the T/C (dose: 3.0 mg/kg/injection, schedule: Q01DX009 (ip), vehicle: saline) is reported as 200 % of control. For the same compound, the T/C (dose: 3.13 mg/kg/injection, schedule: Q01DX009 (ip), vehicle: saline sonified) was 150 % of control.

For `Nc1nc(-c2cccnc2)cc2ccccc12`, the T/C (dose: 12.5 mg/kg/injection, schedule: Q04DX003 (ip), vehicle: saline with Tween-80) was 106 % of control and the T/C (dose: 25.0 mg/kg/injection, schedule: Q04DX003 (ip), vehicle: saline with Tween-80) was 91 % of control.

`O=c1[nH]c2ccc(Br)cc2c(=O)o1` was tested, and the T/C (dose: 25.0 mg/kg/injection, schedule: Q01DX001 (ip), vehicle: Klucel (hydroxypropylcellulose) (HPC)) was 104 % of control, the T/C (dose: 35.0 mg/kg/injection, schedule: Q01DX001 (ip), vehicle: Klucel (hydroxypropylcellulose) (HPC)) was 109 % of control and the T/C (dose: 50.0 mg/kg/injection, schedule: Q01DX001 (ip), vehicle: Klucel (hydroxypropylcellulose) (HPC)) was 104 % of control. For the same compound, the T/C (dose: 75.0 mg/kg/injection, schedule: Q01DX001 (ip), vehicle: Klucel (hydroxypropylcellulose) (HPC)) was 95 % of control, the T/C [4] was 150 % of control and the T/C (dose: 250.0 mg/kg/injection, schedule: Q01DX001 (ip), vehicle: Klucel (hydroxypropylcellulose) (HPC)) was 92 % of control. The T/C (dose: 400.0 mg/kg/injection, schedule: Q01DX001 (ip), vehicle: Klucel (hydroxypropylcellulose) (HPC)) was 88 % of control.

`O=C(Nc1ccc(Cl)cc1)P(=O)(O)c1ccccc1` was tested, and the T/C (dose: 6.25 mg/kg/injection, schedule: Q01DX009 (ip), vehicle: saline) was 98 % of control, the T/C (dose: 12.5 mg/kg/injection, schedule: Q01DX009 (ip), vehicle: saline) was 104 % of control and the T/C (dose: 25.0 mg/kg/injection, schedule: Q01DX009 (ip), vehicle: saline) was 98 % of control. For the same compound, the T/C (dose: 50.0 mg/kg/injection, schedule: Q01DX009 (ip), vehicle: saline) was 99 % of control and the T/C (dose: 100.0 mg/kg/injection, schedule: Q01DX009 (ip), vehicle: saline) was 100 % of control and 102 % of control.

In the case of `Cc1c(C#N)c2nc(C(=O)c3ccc(Br)cc3)cc(-c3ccc(Br)cc3)n2c1C`, the T/C [7] is reported as 109 % of control, the T/C [6] is reported as 104 % of control and the T/C (dose: 50.0 mg/kg/injection, schedule: Q04DX003 (ip), vehicle: saline with Tween-80) is reported as 87 % of control. For the same compound, the T/C [4] was 104 % of control, the T/C [1] was 91 % of control and the T/C [5] was 109 % of control. For the same compound, the T/C [2] was 87 % of control and the T/C [3] was 87 % of control.

`CN1CCN(c2ccc([N+](=O)[O-])c3no[n+]([O-])c23)CC1` was tested, and the T/C (dose: 10.0 mg/kg/injection, schedule: Q01DX009 (ip), vehicle: saline with Tween-80) was 166 % of control and the T/C (dose: 20.0 mg/kg/injection, schedule: Q01DX009 (ip), vehicle: saline with Tween-80) was 169 % of control.

With `CC1(C)SC2C(NC(=O)C(C(=O)O)c3ccccc3)C(=O)N2C1C(=O)O` (centres undefined) the T/C (dose: 50.0 mg/kg/injection, schedule: Q01DX010 (ip), vehicle: saline) was 122 % of control, the T/C (dose: 100.0 mg/kg/injection, schedule: Q01DX010 (ip), vehicle: saline) was 113 % of control and the T/C (dose: 200.0 mg/kg/injection, schedule: Q01DX010 (ip), vehicle: saline) was 113 % of control. The T/C (dose: 400.0 mg/kg/injection, schedule: Q01DX010 (ip), vehicle: saline) was 118 % of control.

In the case of `NC(C(=O)O)c1cc(=O)[nH]o1` (centres undefined), the T/C (dose: 0.25 mg/kg/injection, schedule: Q01DX009 (ip), vehicle: Klucel (hydroxypropylcellulose) (HPC)) is reported as 86 % of control, the T/C (dose: 0.5 mg/kg/injection, schedule: Q01DX009 (ip), vehicle: Klucel (hydroxypropylcellulose) (HPC)) is reported as 97 % of control and the T/C (dose: 1.0 mg/kg/injection, schedule: Q01DX009 (ip), vehicle: Klucel (hydroxypropylcellulose) (HPC)) is reported as 112 % of control.

For `CCOC(=O)C1=C2c3ccc4ccccc4c3CCC2(C)C(=O)C1` (centres undefined), the T/C (dose: 10.0 mg/kg/injection, schedule: Q01DX009 (sc), vehicle: steriod suspending solution) was 104 % of control, the T/C (dose: 18.0 mg/kg/injection, schedule: Q04DX003 (sc), vehicle: steriod suspending solution) was 91 % of control and the T/C (dose: 20.0 mg/kg/injection, schedule: Q01DX009 (sc), vehicle: steriod suspending solution) was 95 % of control. The T/C (dose: 37.5 mg/kg/injection, schedule: Q04DX003 (sc), vehicle: steriod suspending solution) was 95 % of control, the T/C (dose: 40.0 mg/kg/injection, schedule: Q01DX009 (sc), vehicle: steriod suspending solution) was 100 % of control and the T/C (dose: 75.0 mg/kg/injection, schedule: Q04DX003 (sc), vehicle: steriod suspending solution) was 108 % of control.

In the case of `S=C(Nc1cc2c3c(c1)CCCN3CCC2)Nc1cc2c3c(c1)CCCN3CCC2`, the T/C (dose: 100.0 mg/kg/injection, schedule: Q01DX001 (ip), vehicle: saline with Tween-80) is reported as 109 % of control, the T/C (dose: 200.0 mg/kg/injection, schedule: Q01DX001 (ip), vehicle: saline with Tween-80) is reported as 100 % of control and the T/C (dose: 400.0 mg/kg/injection, schedule: Q01DX001 (ip), vehicle: saline with Tween-80) is reported as 95 % of control.

With `CC1(C)CCC2(CC1)CC(=O)OC2=O` the T/C [1] was 95 % of control, the T/C [2] was 87 % of control and the T/C [3] was 104 % of control.

In the case of `CC(=O)OCC1OC(n2ccc(N)nc2=O)C(OC(C)=O)C1OC(C)=O` (centres undefined), the T/C [6] is reported as 170 % of control, the T/C [4] is reported as 188 % of control and the T/C (dose: 177.0 mg/kg/injection, schedule: Q04DX003 (ip), vehicle: saline) is reported as 177 % of control. For the same compound, the T/C [5] was 106 % of control, the T/C (dose: 266.0 mg/kg/injection, schedule: Q04DX003 (ip), vehicle: saline) was 181 % of control and 195 % of control and the T/C (dose: 400.0 mg/kg/injection, schedule: Q04DX003 (ip), vehicle: saline) was 187 % of control and 204 % of control. For the same compound, the T/C (dose: 600.0 mg/kg/injection, schedule: Q04DX003 (ip), vehicle: saline) was 263 % of control and 200 % of control.

With `COC(=O)CCC(=O)Nc1ccc(C(=O)CBr)cc1` the T/C (dose: 25.0 mg/kg/injection, schedule: Q04DX003 (ip), vehicle: Klucel (hydroxypropylcellulose) (HPC)) was 107 % of control and the T/C (dose: 50.0 mg/kg/injection, schedule: Q04DX003 (ip), vehicle: Klucel (hydroxypropylcellulose) (HPC)) was 97 % of control.

With `COc1ccc(C(=O)/C=N/O)cc1` the T/C [7] was 86 % of control, the T/C [6] was 100 % of control and the T/C [4] was 90 % of control.

In the case of `Cc1cccc(C(=O)NN)c1O`, the T/C (dose: 25.0 mg/kg/injection, schedule: Q01DX009 (ip), vehicle: saline + alcohol) is reported as 92 % of control and the T/C (dose: 100.0 mg/kg/injection, schedule: Q01DX009 (ip), vehicle: saline + alcohol) is reported as 97 % of control.

From PubChem BioAssay AID328 (DTP/NCI, 2004)
